Experimental data published in patent publication US8012484B2, “Method of treating ischemia reperfusion injury by inhibiting NKT cell activity” (University of Virginia Patent Foundation, priority 2007, dated 2011).

Assays:
[1] = test system: invariant NKT cells in a mixed splenocyte culture; test: α-Gal-Cer stimulated IFN-γ production by iNKT cells in mixed splenocyte culture; format: cell-based, mice; details: for effect of antagonist on ATL146e inhibition of α-Gal-Cer mediated IFN-γ production: 1 μM α-Gal-Cer
Description: (§1) FIGS. 5A-E. Inhibition by ATL146e of IFN-γ production by activated NKT cells. A) Purified NKT cells (200,000 per well) were incubated on immobilized anti-CD3 mAb in the presence of vehicle or 100 nM ATL146e. Supernatants were collected after 24 hours and IFN-γ concentrations were measured by ELISA. Data are shown as the mean±SEM from three independent experiments performed in triplicate. *p<0.01 vs. vehicle control as assessed by unpaired t-test B) Bulk splenocytes (300,000 cells per well) were incubated with 1 U/mL ADA and 1 nM-1 μM α-galactosylceramide in the presence of 100 nM ATL146e or vehicle. C) Bulk splenocytes (300,000 cells per well) were incubated with 1 U/mL ADA and 1 μM α-galactosylceramide in the presence or absence of varying concentrations of ATL146e±100 nM ZM241385 or vehicle. D) Bulk splenocytes (300,000 cells per well) were incubated with 1 U/mL ADA and 1 μM α-galactosylceramide in the presence or absence of 1 nM ATL146e±1 μM 8-SPT or vehicle. E) Purified CD4^+NK1.1^+ T cells (150,000 cells per well) were incubated with lymphocyte and NK cell-deficient splenocytes (300,000 cells per well), 1 U/mL ADA and 1 μM α-galactosylceramide in the presence or absence of 100 nM ATL146e±100 nM ZM241385. NK1.1-expressing cells were depleted from RAG 1 KO splenocytes via FACSVantage SE Turbo Sorter. Supernatants were collected after 48 hours, and IFN-γ concentrations were determined by ELISA. Data shown are from a single experiment performed in triplicate, representative of three independent experiments; error bars indicate SEM. (B-E)*p<0.01 vs. vehicle control as assessed by one way ANOVA followed by Dunnetts multiple comparison test.
(§2) Cells were washed and resuspended in RPMI 1640 medium supplemented with 10% heat-inactivated fetal bovine serum and 1% antibiotic-antimycotic (Gibco, Carlsbad, Calif.). In vitro activation of NKT cells was achieved by co-culture for 48 hours with splenocytes and 1 nM-1 μM α-Gal-Cer (KRN7000; from Kumi Miyayama of Kirin Brewery Company, Tokyo) at 37° C. in 5% CO2. Alternately, NKT cells were activated by incubation for 24 hours in 96 well plates coated with 2-10 μg/mL immobilized anti-CD3 mAb (BD Biosciences) at 37° C. in 5% CO2. All in vitro T cell activation experiments were performed with the addition of 1 U/mL adenosine deaminase (ADA) (Roche, Indianapolis, Ind.) to remove endogenous adenosine produced by the cells that may partially activate the A2AR. […]
(§3) IFN-γ concentrations in cell culture supernatants or serum samples were measured by ELISA according to the manufacturer's protocol (e-Bioscience).

[2] = test system: purified CD4+ NK1.1+ NKT cells; test: IFN-γ release from purified NKT cells activated with α-Gal-Cer in the presence of NK cell-depleted RAG 1 KO splenocytes; format: cell-based, mice; details: 1 μM α-Gal-Cer
Description: as §1, with “E) Purified CD4^+NK1.1^+ T cells (150,000 cells per well) were incubated with lymphocyte and NK cell-deficient splenocytes (300,000 cells per well), 1 U/mL ADA and 1 μM α-galactosylceramide in the presence or absence of 100 nM ATL146e±100 nM ZM241385. NK1.1-expressing cells were depleted from RAG 1 KO splenocytes via FACSVantage SE Turbo Sorter.” left out, “Data shown are from a single experiment performed in triplicate, representative of three independent experiments; error bars indicate SEM.” left out, “test. […]” for “test.”
as §3

[3] = test system: hepatic IRI in WT C57BL/6 mice; test: Hepatic ischemia reperfusion injury (72 min ischemia, 24 h reperfusion): serum ALT and necrotic area; format: in vivo; details: 72 min hepatic ischemia
Description: (§4) Mice were anesthetized by intraperitoneal injection of ketamine (100 mg/kg) and xylazine (10 mg/kg). Ambient temperature was controlled in the range of 24-26° C. and mice were placed on a 37° heating pad. Core body temperature of selected mice was monitored with a TH-8 Thermalert monitoring thermometer (Physitemp) and ranged from 35-36°. After midline laparotomy, a microaneurysm clip was applied to the hepatic triad above the bifurcation to clamp the flow of the hepatic artery, portal vein, and bile duct. After superfusion of the liver with warm saline, the peritoneum was closed during 72 min of ischemia. The peritoneum was then reopened and the microaneurysm clip was removed. […]
(§5) Following liver ischemia, blood was collected via retro-orbital bleed 24 hours after the initiation of reperfusion. Serum ALT was measured with a transaminase kit according to the manufacture's protocol (Pointe Scientific, Canton, Mich.). […] The plate was placed in a spectrophotometer preheated to 37° C., and the absorbance at […] was measured every minute for 10 minutes. The slope of the linear portion of the change in absorbance over time was used to calculate IU/L of ALT.
Mice were sacrificed and livers perfused with saline via the portal vein at various times after the initiation of reperfusion. […] Necrotic area was quantified using Adobe Photoshop software.

[4] = test system: RAG 1 KO mice reconstituted with CD4+NK1.1+ NKT cells; test: Hepatic IRI in RAG 1 KO mice after adoptive transfer of NKT cells: serum ALT; format: in vivo
Description: as §4, with “removed. For select experiments, animals received an i.p. loading dose (1 μg/kg) of ATL146e or vehicle control immediately after the onset of reperfusion, and a primed Alzet osmotic minipump was implanted intraperitoneally.” for “removed.”
as §5

[5] = test system: NKT cells isolated from post-ischemic mouse liver and liver-draining lymph nodes; test: Intracellular IFN-γ in NKT cells from post-ischemic liver after 2 hours of reperfusion (FACS); format: in vivo, mice; details: treatment at the initiation of reperfusion
Description: as §4, with “removed. For select experiments, animals received an i.p. loading dose (1 μg/kg) of ATL146e or vehicle control immediately after the onset of reperfusion, and a primed Alzet osmotic minipump was implanted intraperitoneally. ATL146e (10 ng/kg/min) or vehicle was placed in the pumps and delivered until the experiment was terminated. The peritoneum was sutured and the surgical wound was closed with metal staples.” for “removed.”
Intracellular IFN-γ was detected in liver NKT cells by FACS analysis using Fix and Perm Cell Permeabilization Reagents according to the manufacturer's protocol (Caltag Laboratories, Carlsbad, Calif.).

[6] = test system: IFN-γ; test: Serum/plasma IFN-γ 24 hours after reperfusion (ELISA); format: in vivo, mice; details: 24 hours after reperfusion injury
Description: Mice were anesthetized by intraperitoneal injection of ketamine (100 mg/kg) and xylazine (10 mg/kg). Ambient temperature was controlled in the range of 24-26° C. and mice were placed on a 37° heating pad. Core body temperature of selected mice was monitored with a TH-8 Thermalert monitoring thermometer (Physitemp) and ranged from 35-36°. After midline laparotomy, a microaneurysm clip was applied to the hepatic triad above the bifurcation to clamp the flow of the hepatic artery, portal vein, and bile duct. After superfusion of the liver with warm saline, the peritoneum was closed during 72 min of ischemia. The peritoneum was then reopened and the microaneurysm clip was removed. For select experiments, animals received an i.p. loading dose (1 μg/kg) of ATL146e or vehicle control immediately after the onset of reperfusion, and a primed Alzet osmotic minipump was implanted intraperitoneally. ATL146e (10 ng/kg/min) or vehicle was placed in the pumps and delivered until the experiment was terminated. The peritoneum was sutured and the surgical wound was closed with metal staples. Animals were sacrificed by cervical dislocation at various time points after the initiation of reperfusion and blood was collected via retro-orbital bleed. […]
as §3

[7] = test system: CD4+ NK1.1+ NKT cells; test: IFN-γ production by purified NKT cells activated on immobilized anti-CD3 mAb; format: cell-based, mice; details: Mus musculus, 100 nM, 24 hours of incubation, read-out: inhibition of TCR-stimulated IFN-γ production
Description: Wild-type, A2AR KO, or IFN-γ KO C57BL/6 mice were sacrificed and spleens removed. Splenocytes were passed through a 40 μm nylon cell strainer (BD Biosciences, San Jose, Calif.) and collected in phosphate buffered saline. Red blood cells were lysed and CD4^+ T lymphocytes were isolated with mouse CD4 subset column kits (R and D Systems, Minneapolis, Minn.) resulting in >92% pure CD4^+ T cells. The column-purified cells were stained for 30 minutes with FITC-conjugated anti-mouse CD4 and PE-conjugated anti-mouse NK1.1 (eBioscience, San Diego, Calif.) and sorted using a FACSVantage SE Turbo Sorter (Becton Dickinson, Franklin Lakes, N.J.) to produce cell populations of ≧99.8% pure CD4^+NK1.1^+ T lymphocytes.
as §2, with “CO2.” for “CO2. All in vitro T cell activation experiments were performed with the addition of 1 U/mL adenosine deaminase (ADA) (Roche, Indianapolis, Ind.) to remove endogenous adenosine produced by the cells that may partially activate the A2AR.”
as §3

Cn1c(=O)c2[nH]c(-c3ccc(S(=O)(=O)O)cc3)nc2n(C)c1=O [8-SPT, 8-sulfophenyltheophylline]
effect of antagonist on ATL146e inhibition of α-Gal-Cer mediated IFN-γ production ([1]; 1 μM antagonist, 1 nM ATL146e): blocks the inhibitory effects of ATL146e

Nc1nc(NCCc2ccc(O)cc2)nc2nc(-c3ccco3)nn12 [ZM241385, 4-(2-[7-amino-2-[2-furyl][1,2,4]triazolo[2,3-a][1,3,5]triazin-5-yl-amino]ethyl)phenol]
effect of antagonist on ATL146e inhibition of α-Gal-Cer mediated IFN-γ production ([1]; 100 nM antagonist, varying concentrations of ATL146e): causes a right shift in the ATL146e dose response curve | effect of antagonist on ATL146e reduction of IFN-γ ([2]; co-treatment with 100 nM antagonist): this effect was blocked

CCNC(=O)C1OC(n2cnc3c(N)nc(C#CCC4CCC(C(=O)OC)CC4)nc32)C(O)C1O (stereo not shown) [ATL146e, 4-{3-[6-Amino-9-(5-ethylcarbamoyl-3,4-dihydroxy-tetrahydro-furan-2-yl)-9H-purin-2-yl]-prop-2-ynyl}-cyclohexanecarboxylic acid methyl ester]
reduction in serum ALT levels versus vehicle treated controls ([3]; 24 hours after reperfusion): approximately 58% | necrotic area ([3]; 24 hours of reperfusion, H and E staining, vehicle 79.3±3%): 6.1±0.8% | protection from tissue damage (serum ALT) ([4]; RAG 1 KO mice, 250,000 NKT cells from A2AR KO mice transferred): abolishes the effect of agonist administration | protection from tissue damage (serum ALT) ([4]; RAG 1 KO mice, 250,000 WT NKT cells transferred): protects from tissue damage only when WT cells are transferred | increase in intracellular IFN-γ expression of NKT cells (activation) [5]: significantly inhibits this activation | elevation of plasma IFN-γ concentrations [6]: diminished this elevation to a similar extent | inhibition at 0.1 µM [7]: ~73% | inhibition of α-Gal-Cer stimulated IFN-γ production (in words) ([1]; 100 nM, 1 nM-1 μM α-Gal-Cer, mixed splenocyte culture, 48 hours): inhibited competently | EC50 ([1]; Mus musculus, NKT, stimulated by 1 μM α-Gal-Cer, mixed splenocytes, 48 hours, read-out: EC50 of inhibition of iNKT-mediated production of IFN-γ): 0.58 nM | reduction of IFN-γ derived from NKT cell activation ([2]; 100 nM ATL146e, lymphocyte-deficient NK cell-depleted RAG 1 KO splenocytes as APCs): 93%
